# Like-named read-outs stand apart in the source and are kept apart here.
# Assays:
# DBH = biological target: T1, DBH (Bos taurus, UniProt P15101); assay: in vitro DBH inhibition, conversion of tyramine to octopamine; format: biochemical
# T1 sequence (P15101 1-610): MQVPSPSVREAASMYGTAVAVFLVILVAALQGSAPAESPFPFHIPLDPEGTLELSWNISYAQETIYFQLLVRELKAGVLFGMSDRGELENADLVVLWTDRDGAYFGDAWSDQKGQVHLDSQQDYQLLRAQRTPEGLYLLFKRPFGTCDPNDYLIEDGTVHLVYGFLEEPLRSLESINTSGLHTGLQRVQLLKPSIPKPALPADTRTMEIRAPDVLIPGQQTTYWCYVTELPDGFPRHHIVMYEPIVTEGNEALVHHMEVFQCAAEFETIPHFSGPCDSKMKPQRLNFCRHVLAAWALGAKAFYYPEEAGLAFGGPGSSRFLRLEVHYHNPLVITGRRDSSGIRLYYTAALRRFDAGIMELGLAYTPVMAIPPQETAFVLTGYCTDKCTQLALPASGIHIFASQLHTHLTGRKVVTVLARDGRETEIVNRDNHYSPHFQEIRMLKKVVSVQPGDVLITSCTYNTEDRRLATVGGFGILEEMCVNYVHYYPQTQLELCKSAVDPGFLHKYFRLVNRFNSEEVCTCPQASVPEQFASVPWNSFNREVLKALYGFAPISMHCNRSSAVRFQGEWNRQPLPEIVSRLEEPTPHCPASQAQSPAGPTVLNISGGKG
# Description: Compounds of the invention and other compounds useful in the method of the invention were screened for in vitro DBH inhibition by a standard procedure for assaying conversion of tyramine to octopamine in the presence of DBH. Octopamine was assayed following sodium periodate oxidation to p-hydroxybenzaldehyde by measuring spectrophotometric absorbance at 330 nm. Inhibition is given in molar concentration of compound at which DBH activity was halved (IC50). Melting points (mp) are given in °C. By this procedure fusaric acid has an IC50 of about 8×10^-7.
# [1] = mean arterial blood pressure, indwelling cannulae inserted into the tail artery; format: in vivo, Spontaneously hypertensive rats; settings: 50 mg/kg, ip
# Description: (§1) Various compounds of the invention were tested for their effects in vivo on peripheral dopamine (DA) and norepinephrine (NE) levels substantially by the procedure of DaPrada and Zurcher, Life Sci., 19, 1161, (1976). Spontaneously hypertensive rats were dosed twice, the second dose being about 18 hours after the first, and were sacrificed about 2 hours after the second dose.
# Further, the same rats were dosed with a suspension or solution at a dose of 50 mg/kg of test compound i.p. and mean arterial blood pressure was determined with indwelling cannulae inserted into the tail artery.
# [2] = test system: peripheral dopamine (DA) and norepinephrine (NE) levels; assay: in vivo effects on peripheral dopamine (DA) and norepinephrine (NE) levels; design: species or system Spontaneously hypertensive rats; settings: dosed twice about 18 hours apart, sacrificed about 2 hours after second dose
# Description: as §1
# [3] = Teresawa et al., Japan Cir. J. 35, 339 (1971); cited from earlier work
# [4] = octopamine assayed after periodate oxidation, absorbance at 330 nm, read-out: IC50 (molar concentration of compound at which DBH activity was halved)
SMILES,IC50 (DBH; [4]) [nM],other results
"COc1ccc(Cn2nnnc2S)cc1 [Example 4, 1-(4-Methoxybenzyl)-5-mercaptotetrazole]",15000,
"Oc1c(F)cc(CCCn2nnnc2S)cc1F [Example 12, 1-(3-(3,5-Difluoro-4-hydroxyphenyl)propyl)-5-mercaptotetrazole]",80,
"Sc1nnnn1CCCc1ccccc1 [Example 5, 1-(3-Phenylpropyl)-5-mercaptotetrazole]",2400,
"Sc1nnnn1Cc1ccccc1 [Example 6, 1-Benzyl-5-mercaptotetrazole]",13000,reduction in mean arterial pressure [1]: significant reduction in mean arterial pressure
"CCCCc1ccc(C(=O)O)nc1 [Fusaric acid, fusaric acid, reference compound]",,IC50 (DBH): ~800 nM; hepatotoxicity [3]: hepatotoxic
"Fc1cc(F)cc(CCCn2nnnc2S)c1 [Example 7, 1-(3-(3,5-Difluorophenyl)propyl)-5-mercaptotetrazole]",350,
"Oc1ccc(CCCn2nnnc2S)cc1 [Example 11, 1-(3-(4-Hydroxyphenyl)propyl)-5-mercaptotetrazole]",790,

# Now from value to compound, other results behind:
IC50 (DBH; [4]) [nM],SMILES,other results
1500,"Fc1cc(F)cc(Cn2nnnc2S)c1 [Example 1, 1-(3,5-Difluorobenzyl)-5-mercaptotetrazole]",
1000,"Sc1nnnn1Cc1cc(Cl)cc(Cl)c1 [Example 2, 1-(3,5-Dichlorobenzyl)-5-mercaptotetrazole]",reduction in mean arterial pressure [1]: significant reduction in mean arterial pressure; DA/NE Ratio [2]: 0.053 ± 0.0035; DA ([2]; micrograms per gram of tissue): 0.360 ± 0.015 µg/g; NE ([2]; micrograms per gram of tissue): 6.838 ± 0.257 µg/g
9200,"Sc1nnnn1Cc1c(Cl)cccc1Cl [Example 3, 1-(2,6-Dichlorobenzyl)-5-mercaptotetrazole]",
390,"Sc1nnnn1CCCc1cc(Cl)cc(Cl)c1 [Example 9, 1-(3-(3,5-Dichlorophenyl)propyl)-5-mercaptotetrazole]",

# From US4707488A, “Dopamine-β-hydroxylase inhibitors and use thereof” (Smithkline Beckman Corporation, priority 1985, dated 1987)
